Measured values: the supplement of paper PMC10883282
± gives the standard deviation of the averaged measurements.

System: HT1080
Test: relative viability vs DMSO control (72 h) (fraction); higher = more viable cells
In short: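 ATPLite readings, expressed as percent growth and averaged over up to triplicate wells, provided relative viability. Before reading, sarcoma cell lines seeded in 384-well plates to reach 80–90% confluence received 2.5 µl of serially diluted compound after 24 h, from source plates of 10 mM to 0.0002 mM. Plates were held 72 h at 37 °C, 5% CO2, with 0.1% DMSO as vehicle and a 5 µM positive control. The data were rescaled to 1 for full and 0 for none.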

SMILES | relative viability (0.00017 µM) | relative viability (0.00051 µM) | relative viability (0.00152 µM) | relative viability (0.00457 µM) | relative viability (0.01372 µM) | relative viability (0.04115 µM) | relative viability (0.1235 µM) | relative viability (0.3704 µM) | relative viability (1.111 µM) | relative viability (3.333 µM) | relative viability (10 µM) | relative viability (2 pM) | relative viability (5 pM) | relative viability (15 pM) | relative viability (50 pM) | relative viability (0.00014 µM) | relative viability (0.00041 µM) | relative viability (0.0012 µM) | relative viability (0.0037 µM) | relative viability (0.011 µM) | relative viability (200 fM) | relative viability (600 fM)
CC1(C)CNc2cc(NC(=O)c3cccnc3NCc3ccncc3)ccc21 [Motesanib] | 1.03 ± 0.036 | 0.975 ± 0.032 | 1.03 ± 0.016 | 1.03 ± 0.023 | 1.04 ± 0.041 | 1 ± 0.04 | 1.02 ± 0.0035 | 0.98 ± 0.012 | 1.01 ± 0.018 | 0.9961 ± 0.0086 | 0.976 ± 0.015 | – | – | – | – | – | – | – | – | – | – | –
C[C@@H](c1ccc2nccn2c1)n1nnc2ncc(-c3cnn(C)c3)nc21 [Volitinib] | 1.02 ± 0.043 | 1.06 ± 0.016 | 1.07 ± 0.02 | 1.06 ± 0.031 | 1.06 ± 0.029 | 1.04 ± 0.011 | 1.02 ± 0.022 | 1.05 ± 0.034 | 1.06 ± 0.012 | 0.992 ± 0.016 | 0.948 ± 0.053 | – | – | – | – | – | – | – | – | – | – | –
Cc1ccc(NC(=O)c2ccc(CN3CCN(C)CC3)cc2)cc1Nc1nc(-c2cccnc2)cs1 [Masitinib] | 1.02 ± 0.029 | 1.06 ± 0.022 | 1.06 ± 0.0062 | 1.08 ± 0.033 | 1.05 ± 0.019 | 1.06 ± 0.021 | 1.03 ± 0.032 | 1.02 ± 0.044 | 0.89 ± 0.02 | 0.642 ± 0.06 | 0.177 ± 0.012 | – | – | – | – | – | – | – | – | – | – | –
C=CC(=O)Nc1cccc(Oc2nc(Nc3ccc(N4CCN(C)CC4)cc3)nc3ccsc23)c1 [Olmutinib] | 1.05 ± 0.021 | 1.08 ± 0.014 | 1.07 ± 0.017 | 1.07 ± 0.018 | 1.05 ± 0.049 | 1.0797 ± 0.00078 | 1.07 ± 0.011 | 1.06 ± 0.019 | 1.04 ± 0.015 | 1.03 ± 0.037 | 0.492 ± 0.13 | – | – | – | – | – | – | – | – | – | – | –
CC(C)(C)c1cc(NC(=O)Nc2ccc(-c3cn4c(n3)sc3cc(OCCN5CCOCC5)ccc34)cc2)no1 [Quizartinib] | 1.12 ± 0.013 | 1.09 ± 0.016 | 1.087 ± 0.0076 | 1.08 ± 0.029 | 1.07 ± 0.014 | 1.11 ± 0.034 | 1.1 ± 0.035 | 1.11 ± 0.012 | 1.04 ± 0.042 | 0.907 ± 0.048 | 0.806 ± 0.042 | – | – | – | – | – | – | – | – | – | – | –
CC(C)NC(=O)C1CCC(n2c(NC(=O)c3ccc(F)cc3)nc3ccc(CN4CCC(C(C)(C)O)CC4)cc32)CC1 (centres undefined) [Belizatinib] | 1.079 ± 0.0088 | 1.09 ± 0.036 | 1.05 ± 0.018 | 1.08 ± 0.057 | 1.07 ± 0.052 | 1.08 ± 0.021 | 1.062 ± 0.0014 | 1.06 ± 0.069 | 1.03 ± 0.056 | 0.866 ± 0.014 | 0.4946 ± 0.0036 | – | – | – | – | – | – | – | – | – | – | –
Cc1ccc(F)c(NC(=O)Nc2ccc(-c3cccc4[nH]nc(N)c34)cc2)c1 [Linifanib] | 1.08 ± 0.022 | 1.08 ± 0.026 | 1.07 ± 0.017 | 1.033 ± 0.0064 | 1.06 ± 0.02 | 1.07 ± 0.037 | 1.048 ± 0.0077 | 1.08 ± 0.0094 | 1.08 ± 0.031 | 1.08 ± 0.03 | 1.05 ± 0.015 | – | – | – | – | – | – | – | – | – | – | –
Cc1nc(NC(=O)N2CCC[C@H]2C(N)=O)sc1-c1ccnc(C(C)(C)C(F)(F)F)c1 [Alpelisib] | 1.06 ± 0.032 | 1.05 ± 0.027 | 1.05 ± 0.022 | 1.08 ± 0.031 | 1.01 ± 0.014 | 1.04 ± 0.018 | 1 ± 0.023 | 1.02 ± 0.037 | 0.994 ± 0.03 | 0.977 ± 0.034 | 0.889 ± 0.016 | – | – | – | – | – | – | – | – | – | – | –
C[C@]1(O)C[C@@H](c2nc(-c3ccc4ccc(-c5ccccc5)nc4c3)c3c(N)nccn32)C1 [Linsitinib] | 1.044 ± 0.0049 | 1.09 ± 0.025 | 1.045 ± 0.0029 | 1.057 ± 0.009 | 1.04 ± 0.047 | 1.03 ± 0.018 | 1.03 ± 0.023 | 0.988 ± 0.025 | 0.968 ± 0.043 | 0.968 ± 0.025 | 0.881 ± 0.017 | – | – | – | – | – | – | – | – | – | – | –
C=CC(=O)N1CCC([C@@H]2CCNc3c(C(N)=O)c(-c4ccc(Oc5ccccc5)cc4)nn32)CC1 [Zanubrutinib] | 1.04 ± 0.022 | 1.05 ± 0.022 | 1.04 ± 0.04 | 1.03 ± 0.024 | 1.03 ± 0.026 | 1.03 ± 0.031 | 1.03 ± 0.028 | 1.05 ± 0.071 | 1.017 ± 0.0087 | 1.02 ± 0.033 | 1.02 ± 0.026 | – | – | – | – | – | – | – | – | – | – | –
CCc1cc2c(cc1N1CCC(N3CCOCC3)CC1)C(C)(C)c1[nH]c3cc(C#N)ccc3c1C2=O [Alectinib] | 1.07 ± 0.018 | 1.09 ± 0.0051 | 1.06 ± 0.032 | 1.09 ± 0.014 | 1.077 ± 0.0047 | 1.11 ± 0.045 | 1.08 ± 0.02 | 1.11 ± 0.028 | 1.07 ± 0.024 | 1.07 ± 0.047 | 1.02 ± 0.051 | – | – | – | – | – | – | – | – | – | – | –
C[C@@H]1CCN(C(=O)CC#N)C[C@@H]1N(C)c1ncnc2[nH]ccc12 [Tofacitinib] | 1.06 ± 0.044 | 1.1 ± 0.035 | 1.07 ± 0.025 | 1.077 ± 0.0086 | 1.1 ± 0.022 | 1.08 ± 0.018 | 1.08 ± 0.085 | 1.1 ± 0.04 | 1.07 ± 0.012 | 1.03 ± 0.027 | 1.02 ± 0.024 | – | – | – | – | – | – | – | – | – | – | –
CC[C@H](Nc1ncnc2[nH]cnc12)c1nc2cccc(F)c2c(=O)n1-c1ccccc1 [Idelalisib] | 1.1 ± 0.032 | 1.1 ± 0.025 | 1.07 ± 0.017 | 1.12 ± 0.039 | 1.0913 ± 0.00051 | 1.12 ± 0.021 | 1.09 ± 0.038 | 1.12 ± 0.051 | 1.07 ± 0.027 | 1.08 ± 0.014 | 1.08 ± 0.04 | – | – | – | – | – | – | – | – | – | – | –
COc1cc2nccc(Oc3ccc(NC(=O)Nc4cc(C)on4)c(Cl)c3)c2cc1OC [Tivozanib] | 1.04 ± 0.027 | 1.06 ± 0.021 | 1.06 ± 0.032 | 1.07 ± 0.026 | 1.046 ± 0.01 | 1.06 ± 0.02 | 1.05 ± 0.019 | 1.07 ± 0.02 | 1.1 ± 0.04 | 1.12 ± 0.015 | 0.967 ± 0.021 | – | – | – | – | – | – | – | – | – | – | –
COc1cc2c(cc1O)CCN[C@]21CS[C@@H]2c3c(OC(C)=O)c(C)c4c(c3[C@H](COC1=O)N1[C@@H]2[C@H]2c3c(cc(C)c(OC)c3O)C[C@@H]([C@@H]1O)N2C)OCO4 [Trabectedin] | – | – | – | – | – | – | – | – | – | – | – | 1.13 ± 0.038 | 1.12 ± 0.048 | 1.09 ± 0.047 | 1.094 ± 0.0095 | 1.11 ± 0.031 | 1.077 ± 0.0069 | 0.023 ± 0.0022 | 0.21 ± 0.0023 | 0.159 ± 0.005 | 1.08 ± 0.032 | 1.14 ± 0.017
N#CC[C@H](C1CCCC1)n1cc(-c2ncnc3[nH]ccc23)cn1 [Ruxolitinib] | 1.04 ± 0.037 | 1.034 ± 0.0099 | 1.07 ± 0.012 | 1.05 ± 0.068 | 1.06 ± 0.049 | 1.03 ± 0.017 | 1.05 ± 0.027 | 1.04 ± 0.04 | 1.04 ± 0.021 | 1.04 ± 0.035 | 1.02 ± 0.087 | – | – | – | – | – | – | – | – | – | – | –
Cc1cc(C)c(/C=C2\C(=O)Nc3ccccc32)[nH]1 [Semaxanib] | 0.923 ± 0.051 | 0.964 ± 0.038 | 0.94 ± 0.023 | 0.945 ± 0.018 | 0.926 ± 0.022 | 0.946 ± 0.049 | 0.893 ± 0.059 | 0.921 ± 0.018 | 0.928 ± 0.023 | 0.939 ± 0.034 | 0.888 ± 0.065 | – | – | – | – | – | – | – | – | – | – | –
O=C(Cc1ccc(-c2ccc(OCCN3CCOCC3)cc2)cn1)NCc1ccccc1 [KX2-391] | 1.07 ± 0.025 | 1.1 ± 0.013 | 1.11 ± 0.019 | 1.1 ± 0.033 | 1.06 ± 0.013 | 1.06 ± 0.022 | 0.117 ± 0.0064 | 0.0565 ± 0.0006 | 0.0434 ± 0.0068 | 0.0333 ± 0.0026 | 0.0365 ± 0.0027 | – | – | – | – | – | – | – | – | – | – | –
COc1cc2c(Oc3ccc4[nH]c(C)cc4c3F)ncnc2cc1OCCCN1CCCC1 [Cediranib] | 1.08 ± 0.022 | 1.08 ± 0.015 | 1.06 ± 0.011 | 1.095 ± 0.0091 | 1.1 ± 0.011 | 1.07 ± 0.031 | 1.08 ± 0.016 | 1.1 ± 0.015 | 1.1 ± 0.027 | 1.08 ± 0.035 | 1.06 ± 0.024 | – | – | – | – | – | – | – | – | – | – | –
